Data on two molecules can be found in patent US9795644B2, “Reduction of in vitro genotoxicity of pollen extracts by removal of flavonoids” (STALLERGENES, priority 2009, dated 2017).

The conditions of data set [1]: other in vitro genotoxic tests; cited from earlier work.
Data set [2] concerns mouse lymphoma thymidine kinase gene mutation. Briefly: MLA/TK test of quercetin by Meltz and MacGregor (4-h short term protocol), modelled by equation (2). The format is cell-based. To be noted: quercetin 0.83-0.86 μg/mL; from data of Meltz and MacGregor. Here is the method:
To our knowledge, quercetin is the only flavonoid aglycone that was studied in the MLA/TK test, namely in a work by Meltz and MacGregor who used a 4-h short term protocol (Mutat. Res. 1981; 88: 317-324).
The induction ratios that should result from those amounts was deduced from the data of Meltz and MacGregor. Such deduced induction ratios were then compared to the induction ratio actually observed.
The lowest concentration of quercetin tested by Meltz and MacGregor was 10 μg/mL. Therefore, to determine the ratio that should be obtained with the lowest concentration of 0.864 μg/mL or below, the relationship between (a) the concentrations of quercetin tested by Meltz and MacGregor and (b) the corresponding induction ratios they observed was mathematically modelled. Since those ratios started reaching a plateau at the first concentration tested, we choose to use a logarithmic function for such a modelization. Given that the ratio is necessarily of 1 for 0 μg/mL of mutagen (control), the logarithmic function will be of the form: y=a·ln(x+1)+1 (1)
Using the ratios obtained by Meltz and MacGregor for 10, 20 and 30 μg/mL of quercetin allows a mathematical modelization by the following equation with an excellent correlation coefficient (r=0.99): y=3.0822×ln(x+1)+1 (2).

Data set [3] is described as follows: incubation at 37° C. under MLA/TK conditions, deglycosylation followed by reverse phase HPLC. The format is physicochemical. To be noted: 24 h at 37° C., in presence of grass pollen proteins; from peak areas. Here is the method:
Grass pollen flavonoids were first identified by reverse phase HPLC, according to their hydrophobicity. Reverse phase HPLC was performed on a Atlantis dC18 column, 4.6×250 mm, 5 μm, Waters, Milford, Mass., USA; with a gradient elution: 0.1% formic acid qsp water to 0.1% formic acid qsp acetonitrile in 30 min; flow rate: 1 mL/min; run time: 45 min; detection wavelength: 354 or 254 nm; injection volume 50 μL. Importantly, grass pollen extracts were diluted 5 times in methanol before analysis in order to solubilize both flavonoid glycosides and flavonoid aglycones, the latter being hardly soluble in water.
Analysis of samples was performed using the HPLC method described above for the detection of flavonoids.
As (a) the sum of all peaks areas was rather well conserved and (b) the decrease of a flavonoid diglucoside-corresponding peak was related to the increase or appearance of flavonoid monoglycoside and/or aglycone-corresponding peak(s), it could be considered that the ratio between the two peaks areas is equivalent to the molar ratio of the corresponding flavonoids. On this basis, the decrease in quercetin-diglucoside leaded to an equal increase in molecules of quercetin-monoglucoside and in molecules of quercetin aglycone.

As for `O=c1c(O)c(-c2ccc(O)c(O)c2)oc2cc(O)cc(O)c12` [quercetin], the “genotoxicity rank among flavonoid aglycones” value in data set [1] is reported as “the most genotoxic flavonoid aglycone”. The “induction ratio interpolated with equation (2)” value in data set [2] was determined as 2.9.
`O=c1c(O[C@@H]2O[C@H](CO)[C@@H](O)[C@H](O)[C@H]2O)c(-c2ccc(O[C@@H]3O[C@H](CO)[C@@H](O)[C@H](O)[C@H]3O)c(O)c2)oc2cc(O)cc(O)c12` [quercetin-diglucoside, quercetin-3,4′-diglucoside]: the “share deglycosylated into quercetin (aglycone)” value in data set [3] is given as approximately 20%.
